Measured values from US10759793B2, “2-(pyrazolopyridin-3-yl)pyrimidine derivatives as JAK inhibitors” (ALMIRALL, S.A., priority 2015, dated 2020).

Columns and labels:
Type in all cases: biochemical
JAK3 = JAK3 (Homo sapiens (Human), UniProt P52333); experiment: In vitro JAK kinase assay (TR-FRET), JAK3; details: catalytic domain aa 795-1124, GST-fusion; ATP 0.6 μM; peptide 140 nM; 30 minutes at room temperature
Outline: (§1)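 Each human JAK enzyme assayed on biotinylated poly(GT) peptide substrate, reaction 30 min at room temperature. Phosphorylation detected by TR-FRET after a 3 h detection incubation.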

JAK2 = JAK2 (Homo sapiens (Human), UniProt O60674); experiment: In vitro JAK kinase assay (TR-FRET), JAK2; details: catalytic domain aa 826-1132, GST-fusion; ATP 0.2 μM; peptide 20 nM; 30 minutes at room temperature
JAK2, sequence (O60674 826-1132): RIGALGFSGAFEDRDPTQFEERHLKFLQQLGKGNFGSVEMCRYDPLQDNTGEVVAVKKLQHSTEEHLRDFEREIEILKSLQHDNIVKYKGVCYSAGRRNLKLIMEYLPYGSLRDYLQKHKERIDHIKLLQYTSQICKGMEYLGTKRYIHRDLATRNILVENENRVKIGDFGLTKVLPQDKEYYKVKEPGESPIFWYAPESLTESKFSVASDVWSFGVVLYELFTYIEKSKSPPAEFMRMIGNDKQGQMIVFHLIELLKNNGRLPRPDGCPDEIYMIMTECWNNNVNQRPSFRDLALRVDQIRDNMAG
Outline: as §1

JAK1 = JAK1 (Homo sapiens (Human), UniProt P23458); experiment: In vitro JAK kinase assay (TR-FRET), JAK1; details: catalytic domain aa 850-1154, GST-fusion; ATP 3 μM; peptide 60 nM; 30 minutes at room temperature
JAK1, sequence (P23458 850-1154): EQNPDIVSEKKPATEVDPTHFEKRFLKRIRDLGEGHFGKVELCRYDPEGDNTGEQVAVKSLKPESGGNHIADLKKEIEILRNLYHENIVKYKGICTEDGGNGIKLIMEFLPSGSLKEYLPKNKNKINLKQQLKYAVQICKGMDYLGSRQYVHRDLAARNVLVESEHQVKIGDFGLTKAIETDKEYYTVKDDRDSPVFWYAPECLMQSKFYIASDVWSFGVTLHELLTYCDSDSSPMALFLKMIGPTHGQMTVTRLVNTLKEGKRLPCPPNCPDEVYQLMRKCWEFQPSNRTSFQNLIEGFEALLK
Outline: as §1

JAK3, sequence (P52333 795-1124): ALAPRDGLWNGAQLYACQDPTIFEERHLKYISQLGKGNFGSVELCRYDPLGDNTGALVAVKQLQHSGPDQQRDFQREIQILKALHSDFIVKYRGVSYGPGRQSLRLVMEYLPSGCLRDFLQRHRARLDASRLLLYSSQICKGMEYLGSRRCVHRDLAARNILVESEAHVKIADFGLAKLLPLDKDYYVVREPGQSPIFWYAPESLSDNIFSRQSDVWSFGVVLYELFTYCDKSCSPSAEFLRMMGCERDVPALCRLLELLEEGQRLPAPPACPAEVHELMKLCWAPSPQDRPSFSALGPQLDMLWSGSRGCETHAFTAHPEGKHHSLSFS

| Compound | IC50 (JAK3) [nM] | IC50 (JAK2) [nM] | IC50 (JAK1) [nM] |
| --- | --- | --- | --- |
| N#CC[C@H]1CC[C@H](Nc2nc(-c3cnn4ccccc34)nc(N3CCC(N)CC3)c2F)CC1 [Example 2, (Trans-4-{[6-(4-aminopiperidin-1-yl)-5-fluoro-2-pyrazolo[1,5-a]pyridin-3-ylpyrimidin-4-yl]amino}cyclohexyl)acetonitrile] | 4 | 1 | 82 |
| COCCOc1nc(-c2cnn3ccccc23)nc(N[C@@H]2CCCN(C(=O)CO)C2)c1F [Example 39, 2-((3R)-3-{[5-Fluoro-6-(2-methoxyethoxy)-2-pyrazolo[1,5-a]pyridin-3-ylpyrimidin-4-yl]amino}piperidin-1-yl)-2-oxoethanol] | 3 | 0.8 | 11 |
| CN1CCN(c2nc(-c3cnn4ccccc34)nc(N[C@@H]3CCCN(C(=O)CO)C3)c2F)CC1 [Example 25, 2-((3R)-3-{[5-fluoro-6-(4-methylpiperazin-1-yl)-2-pyrazolo[1,5-a]pyridin-3-ylpyrimidin-4-yl]amino}piperidin-1-yl)-2-oxoethanol] | 2 | 0.6 | 22 |
| N#CCC(=O)N1CCC[C@@H](Nc2nc(-c3cnn4ccccc34)nc(-c3ccc(CO)nc3)c2F)C1 [Example 85, 3-[(3R)-3-({5-Fluoro-6-[6-(hydroxymethyl)pyridin-3-yl]-2-pyrazolo[1,5-a]pyridin-3-ylpyrimidin-4-yl}amino)piperidin-1-yl]-3-oxopropanenitrile] | 4 | 1 | 1 |
| O=C(CO)N1CCC[C@@H](Nc2nc(-c3cnn4ccccc34)nc(OCC(F)F)c2F)C1 [Example 50, 2-((3R)-3-{[6-(2,2-Difluoroethoxy)-5-fluoro-2-pyrazolo[1,5-a]pyridin-3-ylpyrimidin-4-yl]amino}piperidin-1-yl)-2-oxoethanol] | 9 | 3 | 15 |
| COc1nc(-c2cnn3ccccc23)nc(N[C@@H]2CCCN(C(=O)CO)C2)c1C [Example 93, 2-{(3R)-3-[(6-Methoxy-5-methyl-2-pyrazolo[1,5-a]pyridin-3-ylpyrimidin-4-yl)amino]piperidin-1-yl}-2-oxoethanol] | 6 | 3 | 23 |
| N#CCC(=O)N1CCC[C@@H](Nc2nc(-c3cnn4ccccc34)nc(-c3cncc(CO)c3)c2F)C1 [Example 89, 3-[(3R)-3-({5-Fluoro-6-[5-(hydroxymethyl)pyridin-3-yl]-2-pyrazolo[1,5-a]pyridin-3-ylpyrimidin-4-yl}amino)piperidin-1-yl]-3-oxopropanenitrile] | 3 | 1 | 5 |
| Cc1cc(-c2nc(-c3cnn4ccccc34)nc(O[C@@H]3CCCN(C(=O)CO)C3)c2F)ccn1 [Example 71, 2-((3R)-3-{[5-Fluoro-6-(2-methylpyridin-4-yl)-2-pyrazolo[1,5-a]pyridin-3-ylpyrimidin-4-yl]oxy}piperidin-1-yl)-2-oxoethanol] | 26 | 2 | 35 |
| N#CC[C@H]1CC[C@H](Nc2nc(-c3cnn4ccccc34)nc(N3CCNCC3)c2F)CC1 [Example 3, {Trans-4-[(5-fluoro-6-piperazin-1-yl-2-pyrazolo[1,5-a]pyridin-3-ylpyrimidin-4-yl)amino]cyclohexyl}acetonitrile] | 4 | 0.8 | 150 |
| N#CCC(=O)N1CCC[C@@H](Nc2cc(OCCO)nc(-c3cnn4ccccc34)n2)C1 [Example 103, 3-((3R)-3-{[6-(2-Hydroxyethoxy)-2-pyrazolo[1,5-a]pyridin-3-ylpyrimidin-4-yl]amino}piperidin-1-yl)-3-oxopropanenitrile] | 1 | 1 | 1 |
| O=C(CO)N1CCC[C@@H](Oc2nc(-c3cnn4ccccc34)nc(N3CCC(O)CC3)c2F)C1 [Example 75, 1-(5-Fluoro-6-{[(3R)-1-glycoloylpiperidin-3-yl]oxy}-2-pyrazolo[1,5-a]pyridin-3-ylpyrimidin-4-yl)piperidin-4-ol] | 26 | 4 | 29 |
| O=C(COc1nc(-c2cnn3ccccc23)nc(N[C@@H]2CCCN(C(=O)CO)C2)c1F)OCc1ccccc1 [Example 44, Benzyl[(5-fluoro-6-{[(3R)-1-glycoloylpiperidin-3-yl]amino}-2-pyrazolo[1,5-a]pyridin-3-ylpyrimidin-4-yl)oxy]acetate] | 140 | 74 | 970 |

More lines, in order of falling IC50 (JAK3), values ahead:

| IC50 (JAK3) [nM] | IC50 (JAK2) [nM] | IC50 (JAK1) [nM] | Compound |
| --- | --- | --- | --- |
| 4 | 3 | 29 | C[C@@H](CO)Oc1nc(-c2cnn3ccccc23)nc(N[C@@H]2CCCN(C(=O)CO)C2)c1F [Example 59, (2S)-2-[(5-Fluoro-6-{[(3R)-1-glycoloylpiperidin-3-yl]amino}-2-pyrazolo[1,5-a]pyridin-3-ylpyrimidin-4-yl)oxy]propan-1-ol] |
| 4 | 1 | 12 | CC(C)OC(=O)c1nc(-c2cnn3ccccc23)nc(N[C@@H]2CCCN(C(=O)CO)C2)c1F [Example 92, Isopropyl 5-fluoro-6-{[(3R)-1-glycoloylpiperidin-3-yl]amino}-2-pyrazolo[1,5-a]pyridin-3-ylpyrimidine-4-carboxylate] |
| 3 | 0.5 | 2 | N#CCC(=O)N1CCC[C@@H](Oc2nc(-c3cnn4ccccc34)nc(N3CCOCC3)c2F)C1 [Example 53, 3-{(3R)-3-[(5-fluoro-6-morpholin-4-yl-2-pyrazolo[1,5-a]pyridin-3-ylpyrimidin-4-yl)oxy]piperidin-1-yl}-3-oxopropanenitrile] |
| 3 | 0.7 | 15 | N#CC[C@H]1CC[C@H](Nc2nc(-c3cnn4ccccc34)nc(OC[C@@H](O)CO)c2F)CC1 [Example 6, {Trans-4-[(6-{[(2S)-2,3-dihydroxypropyl]oxy}-5-fluoro-2-pyrazolo[1,5-a]pyridin-3-ylpyrimidin-4-yl)amino]cyclohexyl}acetonitrile] |
| 2 | 1 | 6 | COCCOc1cc(N[C@@H]2CCCN(C(=O)CO)C2)nc(-c2cnn3ccccc23)n1 [Example 96, 2-((3R)-3-{[6-(2-Methoxyethoxy)-2-pyrazolo[1,5-a]pyridin-3-ylpyrimidin-4-yl]amino}piperidin-1-yl)-2-oxoethanol] |
